This is an account of results in patent US7198949B2, “Compositions and methods for altering the biodistribution of biological agents” (Board of Regents of the University of Nebraska, priority 1996, dated 2007).

Data set [1] addresses T1, albumin of PESDA microbubbles (Homo sapiens, UniProt P02768).
T1 construct: commercially available albumin (human), U.S.P. solution (generally supplied as 5% or 25% by weight sterile aqueous solutions); purchased
The data set can be described thus: Partitioning of 35S-labeled PS-ODN between PESDA microbubble top layer and lower layer, liquid scintillation counting. In kind it is binding. The conditions noted are these: for BOTTOM / TOP: N 6; for TOP: top layer containing microbubbles. As to the method: Radiolabeled oligonucleotides were synthesized as hydrogen phosphonate material by Glen Research (Bethesda, Md.) The uniformly ^35S-labeled PS-ODN with sequences 5′-TATGCTGTGCCGGGGTCTTCGGGC 3′ (24-mer complementary to c-myb) (SEQ ID NO:2) and 5′ TTAGGG 3′ (SEQ ID NO:3) were incubated in a final volume of 0.5 ml with the perfluorocarbon-exposed sonicated dextrose albumin microbubble solution for 30 minutes at 37° C. The solutions were allowed to stand so that the bubbles could rise to the top and 100 microliters were removed from the clear solution at the bottom and 100 microliters were removed from the top containing the microbubbles.
Five percent human serum albumin and five percent dextrose were obtained from a commercial source. Three parts of 5% dexticse and one part 5% human serum albumin (total 16 milliliters) were drawn into a 35-milliliter Monojet syringe. Each dextrose albumin sample was hand agitated with 8±2 milliliters of either a fluorocarbon gas (decafluorobutane; molecular weight 238 grams/mole) or 8±2 milliliters of room air, and the sample was then exposed to electromechanical sonication at 20 kilohertz for 80±5 seconds. The mean size of four consecutive samples of the perfluorocarbon-exposed sonicated dextrose albumin (PESDA) microbubbles produced in this manner, as measured with hemocytometry was 4.6±0.4 microns, and mean concentration, as measured by a Coulter counter was 1.4×10^9 bubbles/milliliter. The solution of microbubbles was then washed in a 1000 times volume excess of 5% dextrose to remove albumin which was not associated with the microbubbles. The microbubbles were allowed four hours to rise. The lower solution was then removed leaving the washed foam. The washed foam was then mixed with 0.9% sodium chloride.
Radioactivity in solutions were determined by liquid scintillation counting in a liquid scintillation counter (model LSC7500; Beckman Instruments GmbH, Munich, Germany). The sample volume was 100 μl to which 5 ml of Hydrocount biodegradable scintillation cocktail was added and mixed. Samples were counted immediately after each experiment and then again 24 hours later in order to reduce the influence of chemiluminescence and of quenching.

In another data set the target is human serum albumin (Homo sapiens, UniProt P02768). The conditions noted are these: cited from earlier work.
A further data set deals with albumin (Homo sapiens, UniProt P02768). As to conditions: drugs which bind to albumin at site 1; cited from earlier work.
Another data set deals with cytochrome P450 IIB1. Description: Hexobarbital sleep time and biodistribution in rats given antisense oligos to cytochrome P450 IIB1 with or without PESDA microbubbles. In kind it is in vivo, rat. The conditions noted are these: PB alone × 2 days, 100 mg/kg HB i.p., control rats about 23 minutes.
The mark [2] stands for this setting: bubbles in the presence of free albumin.
Where [3] appears, read: bubbles in the presence of free albumin, lower clear layer.
Setting [4] is: washed bubbles (no free albumin).
The mark [5] stands for this setting: washed bubbles (no free albumin), lower layer.

Marks after values point to notes of the source that are not given here.

albumin, sequence (P02768 25-609): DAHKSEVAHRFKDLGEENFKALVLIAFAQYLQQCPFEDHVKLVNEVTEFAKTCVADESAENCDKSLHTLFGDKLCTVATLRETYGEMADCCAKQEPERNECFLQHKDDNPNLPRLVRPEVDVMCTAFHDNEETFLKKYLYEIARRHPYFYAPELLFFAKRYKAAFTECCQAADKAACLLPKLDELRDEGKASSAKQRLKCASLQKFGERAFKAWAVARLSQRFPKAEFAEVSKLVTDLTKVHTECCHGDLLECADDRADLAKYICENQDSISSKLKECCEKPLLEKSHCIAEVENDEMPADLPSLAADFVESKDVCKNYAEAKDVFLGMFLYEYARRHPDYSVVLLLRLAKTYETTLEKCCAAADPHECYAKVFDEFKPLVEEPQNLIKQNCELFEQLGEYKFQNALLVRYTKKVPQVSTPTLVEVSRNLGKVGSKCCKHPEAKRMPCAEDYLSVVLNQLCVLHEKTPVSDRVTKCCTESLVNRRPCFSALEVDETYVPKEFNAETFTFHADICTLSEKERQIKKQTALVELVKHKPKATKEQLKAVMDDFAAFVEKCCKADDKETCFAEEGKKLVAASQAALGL
T1 sequence (P02768 25-609): as above
human serum albumin, sequence (P02768 25-609): as above
Method for cytochrome P450 IIB1: The oligonucleotides were conjugated to perfluoropropane exposed sonicated dextrose albumin microbubbles (PESDA) as earlier described and delivered to rats intravenously.
Male Sprague-Dawley rats (Sasco, Omaha), were used and weighed between 210 to 290 grams for all studies. […] The animals were exposed to 12 hour light/dark cycle and allowed access to Purina rat chow and tap water ad libitum.
Rats in groups with PB were injected intraperitoneally with phenobarbital (Mallinckrodt, St. Louis) at 80 ml/kg/day×2 days. The PB injections were given simultaneously with the ODN-microbubble injections. Phosphorothioate ODN injections were 1 ml/kg/day×2 days. Sleep times were measured 48 hours after the first injection. The rats were injected intraperitoneally with 100 ml/kg hexobarbital (Sigma, St. Louis), paired fresh daily. The volume of this injection is 1 ml/kg body weight.
Each rat was injected with 100 mg/kg of hexobarbital intraperitoneally. The animals were placed on their backs to insure that they were still under sedation from the hexobarbital. Sleep time is defined as the time they are placed on their backs to the time when they roll over. The sleep times listed are the mean of each animal in the group±standard deviation.
As described earlier, 100 mg/kg HB was injected i.p. to each animal at the end of 2 days of treatment with PB and/or the ODNs.

As to 5′ TTAGGG 3′, the “RATIO T/B” value in data set [1] (setting [2]) was determined as 1.35; in data set [1] (setting [4]) it was 1.67. Further, the BOTTOM in data set [1] (setting [3]) turned out to be 92.3 ± 6.4 cpm/μl; in data set [1] (setting [5]), 126 ± 8.7 cpm/μl. Besides, the TOP in data set [1] (setting [2]) came to 125 ± 6.4 cpm/μl; in data set [1] (setting [4]), 210 ± 10.8 cpm/μl.

With “5′-TATGCTGTGCCGGGGTCTTCGGGC 3′ (antisense TATGCTGTGCCGGGGTCTTCGGGC; phosphorothioate backbone, 35S label, further chemistry not given here) [c-myb, uniformly 35S-labeled PS-ODN, 24-mer complementary to c-myb]”, the “RATIO T/B” value is recorded as 1.35 in data set [1] (setting [2]) and 2.16 in data set [1] (setting [4]). The BOTTOM in data set [1] (setting [3]) is recorded as 77.3 ± 1.2 cpm/μl; in data set [1] (setting [5]), 92.7 ± 15.7 cpm/μl. Also, the values for the TOP in data set [1] (setting [2]) and in data set [1] (setting [4]) were 94.1 ± 17.6 cpm/μl and 200.3 ± 37.4 cpm/μl, respectively.

As to 5′d(AACGTTGAGGGGCAT)-3′ [15 mer PS-ODN], the “binding to human serum albumin in solution (dissociation constant range)” value on human serum albumin was 3.7−4.8×10−5.

As for `CO/N=C(\C(=O)N[C@@H]1C(=O)N2C(C(=O)O)=C(CSc3nc(=O)c(=O)[nH]n3C)CS[C@H]12)c1csc(N)n1` [Ceftriaxone], the “% Albumin Binding” value at albumin is reported as 90–95* %.

On to `NS(=O)(=O)c1cc(C(=O)O)c(NCc2ccco2)cc1Cl` [Furosemide], for which the “% Albumin Binding” value at albumin is reported as 98.8%.

As for `Clc1ccc(COC(Cn2ccnc2)c2ccc(Cl)cc2Cl)c(Cl)c1` (stereo not drawn) [Miconazole], the “% Albumin Binding” value on albumin is 90.7–93.1* %.

For `CCC1(c2ccccc2)C(=O)NC(=O)NC1=O` [PB, phenobarbital], the sleep time entry with cytochrome P450 IIB1 is on record as “about 11.4±4.5 minutes”.

Take `O=C1NC(=O)C(c2ccccc2)(c2ccccc2)N1` [Phenytoin]: at albumin, the “% Albumin Binding” value is 89.0%.

For the compound `CN1C(C(=O)Nc2ccccn2)=C(O)c2ccccc2S1(=O)=O` [Piroxicam], the “% Albumin Binding” value at albumin is on record as 99.3%.

On to `Cc1noc(NS(=O)(=O)c2ccc(N)cc2)c1C` [Sulfisoxazole], for which the “% Albumin Binding” value at albumin is reported as 91.4%.

For the compound `CCCC(CCC)C(=O)O` [Valproic Acid], the “% Albumin Binding” value on albumin is recorded as 93.0%.
